Holding throughout (assay type): biochemical
Assay [1] deals with T1, PHF8 (KDM7) (Homo sapiens, UniProt Q9UPP1).
T1 construct: KDM7 (PHF8); BRIC; 1-1322; Bac
Description: Histone lysine demethylase AlphaLISA assay, PHF8. The protocol:
(§1) The compounds of the application, or a pharmaceutically acceptable salt, or solvate, or prodrug thereof, are tested in an in vitro AlphaLISA assay. Enzymes are dissolved in enzyme buffer and incubated before they are added to DMSO solutions of compounds of the application, or a pharmaceutically acceptable salt, or solvate, or prodrug thereof, in enzyme buffer. The reaction mixture is then incubated for an additional period of time before substrate solution is added and then the resulting mixture again incubated. Acceptor beads and suspended Epigenetic Buffer from stock are added and the suspension is again incubated before a suspension of streptavidin donor beads in Epigenetic Buffer is added. After an additional period of incubation, the plates are read.
(§2) The ability of compounds of the application to inhibit the histone lysine demethylase activity in vitro of different enzymes was determined.
(§3) The reaction mixture was incubated for another 10 minutes before 5 μL of substrate solution was added and the resulting mixture was then incubated at room temperature. […] After incubation at room temperature in the dark, the plates were read.
(§4) Enzyme Buffer: 50 mM Hepes (pH 7.4-8.0), 0.003-0.01% Tween-20, 0.1% BSA; 5 μM (NH4)2Fe(SO4)2.
(In Alpha technology, singlet oxygen from a donor bead excites a nearby acceptor bead.)

Assay [2] has as its target T2, KDM2B (FBXL10) (Homo sapiens, UniProt Q8NHM5).
T2 construct: KDM2B; BPS,; 1-650; Bac; purchased BPS Bioscience, US; host or cells: baculovirus system
T2 sequence (Q8NHM5 1-650): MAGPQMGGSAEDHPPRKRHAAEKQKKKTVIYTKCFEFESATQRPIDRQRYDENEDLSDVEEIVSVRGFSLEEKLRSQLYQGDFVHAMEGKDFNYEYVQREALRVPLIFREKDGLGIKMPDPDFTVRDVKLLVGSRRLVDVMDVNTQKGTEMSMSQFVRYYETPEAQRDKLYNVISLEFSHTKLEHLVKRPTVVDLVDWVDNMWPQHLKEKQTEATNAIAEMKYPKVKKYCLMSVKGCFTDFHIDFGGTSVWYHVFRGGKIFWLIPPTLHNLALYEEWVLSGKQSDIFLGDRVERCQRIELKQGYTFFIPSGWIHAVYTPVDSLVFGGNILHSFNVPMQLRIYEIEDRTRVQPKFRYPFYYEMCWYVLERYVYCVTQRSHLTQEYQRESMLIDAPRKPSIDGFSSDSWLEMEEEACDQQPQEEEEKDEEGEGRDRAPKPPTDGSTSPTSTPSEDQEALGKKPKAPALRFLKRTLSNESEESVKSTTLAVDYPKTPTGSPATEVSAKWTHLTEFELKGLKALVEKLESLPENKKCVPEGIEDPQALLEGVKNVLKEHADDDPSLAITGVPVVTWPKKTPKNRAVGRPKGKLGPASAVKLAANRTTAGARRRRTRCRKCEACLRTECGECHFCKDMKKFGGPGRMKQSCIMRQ
The assay can be described thus: Histone lysine demethylase AlphaLISA assay, KDM2B. The settings on record: AlphaLISA, in vitro; read-out: HDME Inhibition KDM2B. The protocol: as §1, §2, §3, §4

The target in assay [3] is T3, KDM4C (JMJD2C) (Homo sapiens, UniProt Q9H3R0).
T3 construct: KDM4C; BRIC, Denmark; 1-349; E. coli; host or cells: E. coli
T3 sequence (Q9H3R0 1-349): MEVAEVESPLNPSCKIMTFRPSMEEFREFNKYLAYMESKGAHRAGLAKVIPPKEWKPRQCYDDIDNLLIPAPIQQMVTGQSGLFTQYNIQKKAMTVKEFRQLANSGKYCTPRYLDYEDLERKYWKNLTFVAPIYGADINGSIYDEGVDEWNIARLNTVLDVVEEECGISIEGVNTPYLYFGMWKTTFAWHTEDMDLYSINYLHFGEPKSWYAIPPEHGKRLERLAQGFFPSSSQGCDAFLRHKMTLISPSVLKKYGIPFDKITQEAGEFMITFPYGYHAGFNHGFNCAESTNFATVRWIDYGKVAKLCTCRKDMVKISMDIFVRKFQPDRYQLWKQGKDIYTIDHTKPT
The assay can be described thus: Histone lysine demethylase AlphaLISA assay, KDM4C. The procedure:
as §1, §2, §3, §4

For assay [4], the target named is T4, KDM5B (PLU-1) (Homo sapiens, UniProt Q9UGL1).
T4 construct: BRIC; 1-809; E. coli; host or cells: E. coli
T4 sequence (Q9UGL1 1-809): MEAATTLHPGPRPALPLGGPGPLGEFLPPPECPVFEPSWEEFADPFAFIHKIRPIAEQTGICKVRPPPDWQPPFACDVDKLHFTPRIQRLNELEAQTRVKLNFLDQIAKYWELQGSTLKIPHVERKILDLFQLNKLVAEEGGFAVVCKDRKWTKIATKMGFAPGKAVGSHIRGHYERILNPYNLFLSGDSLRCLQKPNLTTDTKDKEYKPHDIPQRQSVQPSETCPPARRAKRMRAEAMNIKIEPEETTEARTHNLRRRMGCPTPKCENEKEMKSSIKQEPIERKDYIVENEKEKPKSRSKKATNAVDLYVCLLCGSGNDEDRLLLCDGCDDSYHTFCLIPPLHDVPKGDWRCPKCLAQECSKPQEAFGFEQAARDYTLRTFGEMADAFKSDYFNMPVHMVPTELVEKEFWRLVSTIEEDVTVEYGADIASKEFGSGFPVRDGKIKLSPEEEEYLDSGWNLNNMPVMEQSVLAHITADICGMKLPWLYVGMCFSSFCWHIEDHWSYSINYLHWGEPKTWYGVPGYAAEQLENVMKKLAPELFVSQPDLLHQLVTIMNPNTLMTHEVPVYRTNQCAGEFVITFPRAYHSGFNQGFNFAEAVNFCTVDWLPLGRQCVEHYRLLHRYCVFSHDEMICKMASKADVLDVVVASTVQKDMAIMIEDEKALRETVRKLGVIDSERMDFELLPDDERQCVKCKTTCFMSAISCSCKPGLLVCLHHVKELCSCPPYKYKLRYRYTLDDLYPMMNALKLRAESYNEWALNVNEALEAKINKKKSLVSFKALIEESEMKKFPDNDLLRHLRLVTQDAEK
The assay can be described thus: Histone lysine demethylase AlphaLISA assay, KDM5B. The procedure:
as §1, §2, §3, §4

[5] abbreviates: AlphaLISA, in vitro, read-out: HDME Inhibition PHF8.
The mark [6] stands for this setting: AlphaLISA assay, read-out: HDME Inhibition KDM4C (IC50).
The mark [7] stands for this setting: AlphaLISA, in vitro, read-out: HDME Inhibition KDM4C.
[8] abbreviates: AlphaLISA assay, read-out: HDME Inhibition KDM5B (IC50).
[9] abbreviates: AlphaLISA, in vitro, read-out: HDME Inhibition KDM5B.

SMILES strings stand for the structures. Read-outs that look alike come from different tables or passages of the source.

T1 sequence (Q9UPP1 37-440 limits assumed): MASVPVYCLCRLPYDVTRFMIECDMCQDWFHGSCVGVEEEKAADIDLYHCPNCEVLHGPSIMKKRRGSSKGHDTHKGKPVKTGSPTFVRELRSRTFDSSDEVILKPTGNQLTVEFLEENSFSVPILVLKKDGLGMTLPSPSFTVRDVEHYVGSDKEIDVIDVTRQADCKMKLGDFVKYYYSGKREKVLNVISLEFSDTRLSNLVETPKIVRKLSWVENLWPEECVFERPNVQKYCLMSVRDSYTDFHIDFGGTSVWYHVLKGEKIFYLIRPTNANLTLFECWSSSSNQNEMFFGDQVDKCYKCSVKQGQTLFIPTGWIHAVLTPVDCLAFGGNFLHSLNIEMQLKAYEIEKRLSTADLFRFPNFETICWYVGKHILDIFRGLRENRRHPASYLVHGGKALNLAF

Regarding `Cc1cc(C(=O)O)cc(CNCc2ncc(C(C)O)n2Cc2ccc(F)cc2)n1` (stereo not drawn) [Compound 63, 2-{[({1-[(4-fluorophenyl)methyl]-5-(1-hydroxyethyl)-1H-imidazol-2-yl}methyl)amino]methyl}-6-methylpyridine-4-carboxylic acid], the IC50 is 1.4 µM in assay [1] (setting [5]); 0.333 µM in assay [2]; over 10 µM in assay [3] (setting [6]); over 10 µM in assay [3] (setting [7]); over 10 µM in assay [4] (setting [8]); over 10 µM in assay [4] (setting [9]).

In the case of `CCc1nnc(CNCc2cc(C(=O)O)cc(CO)n2)n1Cc1ccc(F)cc1` [Compound 64, 2-{[({5-ethyl-4-[(4-Fluorophenyl)methyl]-4H-1,2,4-triazol-3-yl}methyl)amino]methyl}-6-(hydroxymethyl)pyridine-4-carboxylic acid], the IC50 was 0.246 µM in assay [1] (setting [5]); 0.104 µM in assay [2]; over 10 µM in assay [3] (setting [6]); over 10 µM in assay [3] (setting [7]); over 10 µM in assay [4] (setting [8]); over 10 µM in assay [4] (setting [9]).

As to `Cc1nnc(CNCc2cc(C(=O)O)cc(CO)n2)n1CCCc1ccccc1` [Compound 65, 2-(hydroxymethyl)-6-[({[5-methyl-4-(3-phenylpropyl)-4H-1,2,4-triazol-3-yl]methyl}amino)methyl]pyridine-4-carboxylic acid], the IC50 in assay [1] (setting [5]) was 1.01 µM; in assay [2] it was 0.034 µM; in assay [3] (setting [6]), over 10 µM; in assay [3] (setting [7]), over 10 µM; in assay [4], 0.151 µM.

As to `O=C(O)c1cc(CO)nc(CNCCc2nncn2Cc2ccc(C(F)(F)F)cc2)c1` [Compound 66, 2-(hydroxymethyl)-6-({[2-(4-{[4-(trifluoromethyl)phenyl]methyl}-4H-1,2,4-triazol-3-yl)ethyl]amino}methyl)pyridine-4-carboxylic acid], the IC50 is over 10 µM in assay [1] (AlphaLISA assay, read-out: HDME Inhibition PHF8 (IC50)); over 10 µM in assay [1] (setting [5]); 5.77 µM in assay [2]; over 10 µM in assay [3] (setting [6]); over 10 µM in assay [3] (setting [7]); 0.943 µM in assay [4] (setting [9]).

For the molecule `Cc1cc(C(=O)O)cc(CNCc2nncn2C/C=C/c2ccccc2)n1` [Compound 67, 2-methyl-6-{[({4-[(2E)-3-phenylprop-2-en-1-yl]-4H-1,2,4-triazol-3-yl}methyl)amino]methyl}pyridine-4-carboxylic acid], the IC50 is 0.791 µM in assay [1] (setting [5]); 0.715 µM in assay [2]; over 10 µM in assay [3] (setting [6]); over 10 µM in assay [3] (setting [7]); over 10 µM in assay [4] (setting [8]); over 10 µM in assay [4] (setting [9]).

Take `CCc1nnc(CNCc2cc(C(=O)O)cc(C)n2)n1C/C=C/c1ccccc1` [Compound 68, 2-{[({5-ethyl-4-[(2E)-3-phenylprop-2-en-1-yl]-4H-1,2,4-triazol-3-yl}methyl)amino]methyl}-6-methylpyridine-4-carboxylic acid]: the IC50 in assay [1] (setting [5]) was 1.8 µM; in assay [2], 1.68 µM; in assay [3] (setting [6]) it was over 10 µM; in assay [3] (setting [7]) it was over 10 µM; in assay [4] (setting [8]), over 10 µM; in assay [4] (setting [9]) it was over 10 µM.

With `CCc1nnc(CNCc2cc(C(=O)O)cc(CO)n2)n1CCCc1ccccc1` [Compound 69, 2-[({[5-ethyl-4-(3-phenylpropyl)-4H-1,2,4-triazol-3-yl]methyl}amino)methyl]-6-(hydroxymethyl)pyridine-4-carboxylic acid], the IC50 was 0.662 µM in assay [1] (setting [5]); 0.027 µM in assay [2]; over 10 µM in assay [3] (setting [6]); over 10 µM in assay [3] (setting [7]); over 10 µM in assay [4] (setting [8]); over 10 µM in assay [4] (setting [9]).

`Cc1nnc(CNCc2cc(C(=O)O)cc(CO)n2)n1CCCC(C)C` [Compound 70, 2-(hydroxymethyl)-6-[({[5-methyl-4-(4-methylpentyl)-4H-1,2,4-triazol-3-yl]methyl}amino)methyl]pyridine-4-carboxylic acid]: the IC50 in assay [1] (setting [5]) is 1.75 µM; in assay [2], 0.485 µM; in assay [3] (setting [6]), over 10 µM; in assay [3] (setting [7]) it was over 10 µM; in assay [4], 0.559 µM.

Consider `O=C(O)c1cc(CO)nc(CNCc2nnc(Cc3cccs3)n2Cc2ccc(F)cc2)c1` [Compound 71, 2-{[({4-[(4-Fluorophenyl)methyl]-5-(thiophen-2-ylmethyl)-4H-1,2,4-triazol-3-yl}methyl)amino]methyl}-6-(hydroxymethyl)pyridine-4-carboxylic acid], for which the IC50 in assay [1] (setting [5]) is 1.78 µM; in assay [2], 0.138 µM; in assay [3] (setting [6]) it was over 10 µM; in assay [3] (setting [7]) it was over 10 µM; in assay [4] (setting [8]) it was over 10 µM; in assay [4] (setting [9]), over 10 µM.

Regarding `Cc1nnc(CNCc2cc(C(=O)O)cc(CO)n2)n1Cc1ccc(F)cc1` [Compound 72, 2-{[({4-[(4-fluorophenyl)methyl]-5-methyl-4H-1,2,4-triazol-3-yl}methyl)amino]methyl}-6-(hydroxymethyl)pyridine-4-carboxylic acid], the IC50 was 0.529 µM in assay [1] (setting [5]); 0.283 µM in assay [2]; over 10 µM in assay [3] (setting [6]); over 10 µM in assay [3] (setting [7]); over 10 µM in assay [4] (setting [8]); over 10 µM in assay [4] (setting [9]).

As for `CCCc1nnc(CNCc2cc(C(=O)O)cc(CO)n2)n1Cc1ccc(F)cc1` [Compound 73, 2-{[({4-[(4-fluorophenyl)methyl]-5-propyl-4H-1,2,4-triazol-3-yl}methyl)amino]methyl}-6-(hydroxymethyl)pyridine-4-carboxylic acid], the IC50 in assay [1] (setting [5]) was 1.65 µM; in assay [2], 0.252 µM; in assay [3] (setting [6]) it was over 10 µM; in assay [3] (setting [7]) it was over 10 µM; in assay [4] (setting [8]), over 10 µM; in assay [4] (setting [9]), over 10 µM.

For `C=CCn1ccnc1CNCc1cc(C(=O)O)cc(C)n1` [Compound 75, 2-methyl-6-[({[1-(prop-2-en-1-yl)-1H-imidazol-2-yl]methyl}amino)methyl]pyridine-4-carboxylic acid], the IC50 was 1.27 µM in assay [1] (setting [5]); 0.587 µM in assay [2]; over 10 µM in assay [3] (setting [6]); over 10 µM in assay [3] (setting [7]); 0.431 µM in assay [4].

The values are drawn from patent publication US9802941B2, “Compounds and methods for inhibiting histone demethylases” (Gilead Sciences, Inc., priority 2014, dated 2017).
